Publication PMC11203266, “Continuous evolution of compact protein degradation tags regulated by selective molecular glues” (Science (New York, N.Y.), 2024)

Assays:
[1] = target: T1, DDB1•CRBN (Homo sapiens, UniProt Q96SW2); assay: Competitive fluorescence anisotropy (polarization) vs thalidomide-Cy5; type: binding; conditions: competition with thalidomide–Cy5; KD estimated from Ki
T1 construct: made in house
Description: Competitive fluorescence polarization experiments were performed according to previously reported methods ([65]). All experiments were performed in 25 mM HEPES, […], 1 mM TCEP, pH 7.4. A pre-complexed sample was prepared by incubating DDB1-CRBN (400 nM) with thalidomide–Cy5 conjugate (fig. S2A) (80 nM) at RT for 30 minutes with gentle shaking (220 rpm). […] Polarization values were measured on an Infinite M1000 Pro microplate reader (Tecan) following 1 hour of incubation at RT with gentle shaking. A total of three independent measurements were acquired and averaged per biological sample to generate the values shown in figure S2C. All mP values were normalized between 0 and 100 using the formula NormalizedmP=[(x−minimum)/[…]]∗100 , where ‘‘x’’ is the mP value of the sample and ‘‘minimum’’ and ‘‘maximum’’ are the minimum and maximum mP values, respectively, across all samples. KD values were estimated from computed Ki-values as previously described ([65]).

[2] = system: SD40 fusions with Nluc, Fluc, and PRKRA; assay: Immunoblot, degradation of exogenously expressed SD40 fusion proteins in HEK293T cells; type: cell-based, human
Description: To test the versatility of SD40, we generated five stable HEK293T cell lines that exogenously express N- or C-terminal SD40 fusions with Nluc, Fluc, and the kinase activator PRKRA. […] To investigate whether SD40 targets unintended neosubstrates for degradation, we performed global proteomics using HEK293T cells stably expressing SD40–eGFP.
HEK293T or K562 cells were plated at a density of 1.6 x 10^5 cells/well in a 24-well plate coated with poly-D-lysine (Corning) in 1 mL media (DMEM + 10% FBS for HEK293T cells and RPMI + 10% FBS for K562 cells). After 16–18 hrs, cells were treated with either DMSO or the indicated concentration of small molecules to a 0.5% final concentration of DMSO. Plates were incubated at 37 °C, 5% CO2 for 24 hours for all cell lines except endogenously tagged PLK1–SD40 HEK293T cells, which were incubated for 2 hours. Cells were washed with PBS and then lysed for 30 minutes at 4 °C in radioimmunoprecipitation assay (RIPA; 25 mM Tris-HCl, 150 mM NaCl, 1% NP-40, 1% sodium deoxycholate, 0.1% SDS, pH ~ 7.6) buffer containing 1 mM phenylmethylsulfonyl fluoride (PMSF; Sigma Aldrich) and 1 x EDTA-free protease inhibitor cocktail (Roche). Lysates were centrifuged for 20 min @18,000 x g to isolate the soluble fractions. Protein concentration in clarified lysates was quantified using Pierce BCA Protein Assay Kit (Thermo Scientific) according to the manufacturer’s protocol. Clarified lysates were mixed with NuPAGE LDS Sample Buffer (Thermo NP0007) containing 10 mM DTT and boiled for 10 minutes. Gel electrophoresis was performed on boiled samples using polyacrylamide gels (Invitrogen NP0329BOX) with equal amounts of total protein in each lane. Proteins were transferred to nitrocellulose membranes (Invitrogen IB23001) using the iBlot 2 (Invitrogen IB21001) P0 protocol. After transfer, membranes were blocked in blocking buffer (50 mM Tris-HCl, 150 mM NaCl, 0.5% Tween-20, 1% bovine serum albumin, pH 7.4) for 1 hr at RT and then incubated with primary antibody overnight at 4 °C in blocking buffer. […]

## O=C1CCC(N2C(=O)c3ccc(N4CCOCC4)cc3C2=O)C(=O)N1 (stereo not shown) [PT-179]
[1]
  Kd: 587 nM
[2]; 1 μM PT-179, SD40-PRKRA
  time at which PRKRA degradation occurred: ≤ 10 min
  time to near complete PRKRA degradation (in words): nearly complete within one hour
[2]; 24 hrs, 1 nM-10 µM
  degradation of N- or C-terminal SD40 fusion constructs (in words): robust dose-dependent degradation
